Experimental data reported in patent US20200331925A1, “HETEROCYCLIC COMPOUNDS FOR THE TREATMENT OF ABNORMAL CELLULAR PROLIFERATION” (G1 Therapeutics, Inc., priority 2018, published 2020).

Tests used:
Format in all cases: biochemical
[1] = biological target: CDK6/Cyclin D3 (Homo sapiens, UniProt Q00534); experiment: CDK6/Cyclin D3 kinase assay (Nanosyn, Caliper microfluidic); details: 12-point dose-response, ATP at Km (300 μM), 3 hr
Experimental: (§1) Selected compounds disclosed herein were tested in kinase assays by Nanosyn (Santa Clara, Calif.) to determine their inhibitory effect on selected CDKs. The assays were performed using microfluidic kinase detection technology (Caliper Assay Platform). The compounds were tested in 12-point dose-response format in singlicate at Kmfor ATP. Phosphoacceptor substrate peptide concentration used was 1 μM for all assays and Staurosporine was used as the reference compound for all assays. Specifics of each assay are as described below: CDK6/Cyclin D3: Enzyme concentration: 2 nM; ATP concentration: 300 μM; Incubation time: 3 hr.

[2] = biological target: CDK3/Cyclin E (Homo sapiens, UniProt Q00526); experiment: CDK3/Cyclin E kinase assay (Nanosyn, Caliper microfluidic); details: 12-point dose-response, ATP at Km (400 μM), 3 hr
Experimental: as §1, with “below: CDK3/Cyclin E:” for “below: CDK6/Cyclin D3:”, “concentration: 1” for “concentration: 2”, “concentration: 400” for “concentration: 300”

[3] = biological target: CDK9/Cyclin T (Homo sapiens, UniProt P50750); experiment: CDK9/Cyclin T kinase assay (Nanosyn, Caliper microfluidic); details: 12-point dose-response, ATP at Km (10 μM), 17 hr; Table 5
CDK9/Cyclin T, sequence (P50750 whole entry): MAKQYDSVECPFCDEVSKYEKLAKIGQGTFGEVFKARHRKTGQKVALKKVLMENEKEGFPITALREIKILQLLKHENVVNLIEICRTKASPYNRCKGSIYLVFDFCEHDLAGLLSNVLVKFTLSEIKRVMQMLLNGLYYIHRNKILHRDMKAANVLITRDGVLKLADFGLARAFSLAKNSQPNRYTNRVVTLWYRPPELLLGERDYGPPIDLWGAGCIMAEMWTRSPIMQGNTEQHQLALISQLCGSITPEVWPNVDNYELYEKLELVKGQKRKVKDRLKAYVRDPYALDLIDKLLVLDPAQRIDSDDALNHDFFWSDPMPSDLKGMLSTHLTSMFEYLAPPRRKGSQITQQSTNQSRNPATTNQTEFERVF
CDK9/Cyclin T, sequence (O60563 whole entry partner): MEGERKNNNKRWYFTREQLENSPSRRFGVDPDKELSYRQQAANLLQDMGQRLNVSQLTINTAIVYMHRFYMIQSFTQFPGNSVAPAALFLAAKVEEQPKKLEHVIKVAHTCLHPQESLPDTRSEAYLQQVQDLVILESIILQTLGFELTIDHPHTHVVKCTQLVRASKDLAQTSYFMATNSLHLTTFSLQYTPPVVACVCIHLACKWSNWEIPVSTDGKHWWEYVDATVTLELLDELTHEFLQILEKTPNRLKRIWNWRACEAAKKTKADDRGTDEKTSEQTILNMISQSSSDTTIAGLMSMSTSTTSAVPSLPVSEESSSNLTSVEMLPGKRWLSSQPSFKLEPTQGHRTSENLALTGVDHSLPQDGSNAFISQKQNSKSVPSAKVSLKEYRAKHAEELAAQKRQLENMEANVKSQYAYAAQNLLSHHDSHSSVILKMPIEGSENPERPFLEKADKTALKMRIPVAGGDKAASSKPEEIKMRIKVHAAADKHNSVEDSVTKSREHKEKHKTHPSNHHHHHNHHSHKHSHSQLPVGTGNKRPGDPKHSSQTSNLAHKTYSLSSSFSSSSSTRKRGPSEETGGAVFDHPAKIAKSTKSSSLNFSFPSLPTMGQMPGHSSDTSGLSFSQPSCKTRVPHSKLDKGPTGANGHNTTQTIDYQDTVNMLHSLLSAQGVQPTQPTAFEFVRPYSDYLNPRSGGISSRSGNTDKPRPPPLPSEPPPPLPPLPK
Experimental: as §1, with “below: […]:” for “below: CDK6/Cyclin D3:”, “concentration: 5” for “concentration: 2”, “concentration: 10” for “concentration: 300”, “time: 17” for “time: 3”

[4] = biological target: CDK2/Cyclin E (Homo sapiens, UniProt P24941); experiment: CDK2/Cyclin E kinase assay (Nanosyn, Caliper microfluidic); details: 12-point dose-response, ATP at Km (100 μM), 3 hr
Experimental: as §1, with “below: CDK2/Cyclin E:” for “below: CDK6/Cyclin D3:”, “concentration: 0.15” for “concentration: 2”, “concentration: 100” for “concentration: 300”

[5] = biological target: CDK2/Cyclin A (Homo sapiens, UniProt P24941); experiment: CDK2/Cyclin A kinase assay (Nanosyn, Caliper microfluidic); details: 12-point dose-response, ATP at Km (50 μM), 3 hr
Experimental: as §1, with “below: CDK2/Cyclin A:” for “below: CDK6/Cyclin D3:”, “concentration: 0.1” for “concentration: 2”, “concentration: 50” for “concentration: 300”

[6] = biological target: CDK7/Cyclin H (Homo sapiens, UniProt P50613); experiment: CDK7/Cyclin H kinase assay (Nanosyn, Caliper microfluidic); details: 12-point dose-response, ATP at Km (50 μM), 17 hr
CDK7/Cyclin H, sequence (P50613 whole entry): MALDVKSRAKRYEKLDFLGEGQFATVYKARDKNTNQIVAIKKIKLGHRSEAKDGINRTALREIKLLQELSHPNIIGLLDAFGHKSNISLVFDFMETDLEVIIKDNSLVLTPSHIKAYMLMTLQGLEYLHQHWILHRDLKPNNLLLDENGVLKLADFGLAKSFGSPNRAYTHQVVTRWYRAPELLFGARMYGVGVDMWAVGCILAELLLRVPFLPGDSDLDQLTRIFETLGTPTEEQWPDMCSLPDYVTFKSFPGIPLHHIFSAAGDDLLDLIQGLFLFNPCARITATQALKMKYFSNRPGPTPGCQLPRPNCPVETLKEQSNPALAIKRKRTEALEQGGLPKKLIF
CDK7/Cyclin H, sequence (P51946 whole entry partner): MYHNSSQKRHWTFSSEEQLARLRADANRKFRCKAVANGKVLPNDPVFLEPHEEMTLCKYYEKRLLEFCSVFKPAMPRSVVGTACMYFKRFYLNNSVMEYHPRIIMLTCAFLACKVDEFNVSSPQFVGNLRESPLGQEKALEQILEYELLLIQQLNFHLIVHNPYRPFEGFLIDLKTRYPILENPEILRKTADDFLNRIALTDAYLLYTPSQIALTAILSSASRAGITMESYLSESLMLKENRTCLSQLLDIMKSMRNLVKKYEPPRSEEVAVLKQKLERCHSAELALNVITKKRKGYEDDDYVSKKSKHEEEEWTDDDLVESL
CDK7/Cyclin H, sequence (P51948 whole entry partner): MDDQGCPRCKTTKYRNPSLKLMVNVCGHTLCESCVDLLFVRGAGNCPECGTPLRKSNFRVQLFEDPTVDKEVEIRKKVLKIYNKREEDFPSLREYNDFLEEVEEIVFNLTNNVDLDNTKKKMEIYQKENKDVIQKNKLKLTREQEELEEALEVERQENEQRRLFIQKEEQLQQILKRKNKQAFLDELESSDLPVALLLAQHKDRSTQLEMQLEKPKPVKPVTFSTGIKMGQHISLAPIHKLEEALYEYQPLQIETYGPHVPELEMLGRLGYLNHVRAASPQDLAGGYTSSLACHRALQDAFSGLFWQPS
Experimental: as §1, with “below: CDK7/Cyclin H:” for “below: CDK6/Cyclin D3:”, “concentration: 10” for “concentration: 2”, “concentration: 50” for “concentration: 300”, “time: 17” for “time: 3”

[7] = biological target: CDK5/p35 (Homo sapiens, UniProt Q00535); experiment: CDK5/p35 kinase assay (Nanosyn, Caliper microfluidic); details: 12-point dose-response, ATP at Km (20 μM), 3 hr
CDK5/p35, sequence (Q00535 whole entry): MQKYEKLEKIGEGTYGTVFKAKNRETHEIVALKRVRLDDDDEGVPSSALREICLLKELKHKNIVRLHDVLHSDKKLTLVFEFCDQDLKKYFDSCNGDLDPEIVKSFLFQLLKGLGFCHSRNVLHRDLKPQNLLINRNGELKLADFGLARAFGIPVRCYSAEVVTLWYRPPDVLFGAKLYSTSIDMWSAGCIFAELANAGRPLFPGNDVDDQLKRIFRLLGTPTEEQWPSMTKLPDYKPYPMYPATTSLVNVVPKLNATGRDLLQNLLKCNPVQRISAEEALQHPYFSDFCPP
CDK5/p35, sequence (Q15078 whole entry partner): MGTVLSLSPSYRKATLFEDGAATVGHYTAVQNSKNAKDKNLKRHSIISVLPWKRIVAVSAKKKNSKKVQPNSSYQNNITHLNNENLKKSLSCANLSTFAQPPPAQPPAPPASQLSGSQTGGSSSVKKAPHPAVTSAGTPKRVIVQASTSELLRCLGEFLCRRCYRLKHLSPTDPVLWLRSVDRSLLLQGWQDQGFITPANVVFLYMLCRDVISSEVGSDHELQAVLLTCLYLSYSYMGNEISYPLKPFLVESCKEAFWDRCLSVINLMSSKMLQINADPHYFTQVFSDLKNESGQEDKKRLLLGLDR
Experimental: as §1, with “below: CDK5/p35:” for “below: CDK6/Cyclin D3:”, “concentration: 0.05” for “concentration: 2”, “concentration: 20” for “concentration: 300”

[8] = biological target: CDK1/Cyclin B1 (Homo sapiens, UniProt P06493); experiment: CDK1/Cyclin B1 kinase assay (Nanosyn, Caliper microfluidic); details: 12-point dose-response, ATP at Km (40 μM), 3 hr
Experimental: as §1, with “below: CDK1/Cyclin B1:” for “below: CDK6/Cyclin D3:”, “concentration: 0.08” for “concentration: 2”, “concentration: 40” for “concentration: 300”

[9] = biological target: CDK5/p25 (Homo sapiens, UniProt Q00535); experiment: CDK5/p25 kinase assay (Nanosyn, Caliper microfluidic); details: 12-point dose-response, ATP at Km (20 μM), 3 hr
CDK5/p25, sequence (Q00535 whole entry): as the sequence (Q00535 whole entry) above
CDK5/p25, sequence (Q15078 99-307 partner limits assumed): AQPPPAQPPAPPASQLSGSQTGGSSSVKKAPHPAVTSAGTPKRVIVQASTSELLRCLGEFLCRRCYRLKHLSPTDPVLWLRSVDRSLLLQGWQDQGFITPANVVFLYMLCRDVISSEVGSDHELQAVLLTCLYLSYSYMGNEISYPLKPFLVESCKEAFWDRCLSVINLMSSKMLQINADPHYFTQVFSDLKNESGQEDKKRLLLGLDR
Experimental: as §1, with “below: CDK5/p25:” for “below: CDK6/Cyclin D3:”, “concentration: 0.1” for “concentration: 2”, “concentration: 20” for “concentration: 300”

[10] = biological target: CDK4/Cyclin D1 (Homo sapiens, UniProt P11802); experiment: CDK4/Cyclin D1 kinase assay (Nanosyn, Caliper microfluidic); details: 12-point dose-response, ATP at Km (200 μM), 3 hr; Table 4
CDK4/Cyclin D1, sequence (P11802 whole entry): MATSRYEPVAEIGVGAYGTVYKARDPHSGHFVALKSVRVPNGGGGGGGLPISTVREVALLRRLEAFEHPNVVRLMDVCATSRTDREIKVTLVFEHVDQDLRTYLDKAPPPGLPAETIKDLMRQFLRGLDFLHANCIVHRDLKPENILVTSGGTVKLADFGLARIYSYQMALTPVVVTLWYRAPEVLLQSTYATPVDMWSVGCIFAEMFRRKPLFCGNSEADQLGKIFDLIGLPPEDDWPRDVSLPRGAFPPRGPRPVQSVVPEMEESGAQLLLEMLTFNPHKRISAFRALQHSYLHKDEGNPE
CDK4/Cyclin D1, sequence (P24385 whole entry partner): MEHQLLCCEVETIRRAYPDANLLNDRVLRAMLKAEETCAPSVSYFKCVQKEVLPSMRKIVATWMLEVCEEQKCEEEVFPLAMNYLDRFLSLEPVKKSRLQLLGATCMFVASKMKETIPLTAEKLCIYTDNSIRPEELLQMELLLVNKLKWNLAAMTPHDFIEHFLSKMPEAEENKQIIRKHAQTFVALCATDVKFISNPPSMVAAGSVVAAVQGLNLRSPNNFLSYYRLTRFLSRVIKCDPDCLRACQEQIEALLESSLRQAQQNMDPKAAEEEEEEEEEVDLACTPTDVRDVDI
Experimental: as §1, with “below: CDK4/Cyclin D1:” for “below: CDK6/Cyclin D3:”, “concentration: 1” for “concentration: 2”, “concentration: 200” for “concentration: 300”

CDK6/Cyclin D3, sequence (Q00534 whole entry): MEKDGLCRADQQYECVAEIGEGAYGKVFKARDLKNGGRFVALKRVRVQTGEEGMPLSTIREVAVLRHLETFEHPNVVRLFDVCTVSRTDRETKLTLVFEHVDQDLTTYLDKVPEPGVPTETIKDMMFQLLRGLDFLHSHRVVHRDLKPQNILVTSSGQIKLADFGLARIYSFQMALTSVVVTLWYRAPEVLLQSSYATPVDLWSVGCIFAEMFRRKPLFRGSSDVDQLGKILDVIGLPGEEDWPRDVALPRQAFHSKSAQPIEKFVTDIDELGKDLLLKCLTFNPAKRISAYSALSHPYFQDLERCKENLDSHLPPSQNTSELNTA
CDK6/Cyclin D3, sequence (P30281 whole entry partner): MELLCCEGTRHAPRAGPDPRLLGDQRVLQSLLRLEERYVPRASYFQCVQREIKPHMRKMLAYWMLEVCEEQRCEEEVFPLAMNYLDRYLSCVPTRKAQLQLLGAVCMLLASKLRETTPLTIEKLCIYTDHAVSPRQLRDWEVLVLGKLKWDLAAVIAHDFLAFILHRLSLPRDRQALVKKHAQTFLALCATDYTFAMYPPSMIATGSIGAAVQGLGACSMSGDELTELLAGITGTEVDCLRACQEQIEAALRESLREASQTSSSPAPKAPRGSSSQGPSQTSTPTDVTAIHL

Structure (SMILES)	IC50 [1]	IC50 [2]	IC50 [3]	IC50 [4]	IC50 [5]	IC50 [6]	IC50 [7]	IC50 [8]	IC50 [9]	IC50 [10]
O=C1NCC2(CCCCC2)n2c1cc1cnc(NC(=O)[C@@H]3CCCNC3)nc12 [Compound 11, (R)-N-(6′-oxo-7′,8′-dihydro-6′H-spiro[cyclohexane-1,9′-pyrazino[1′,2′:1,5]pyrrolo[2,3-d]pyrimidin]-2′-yl)piperidine-3-carboxamide]	28000 nM	7200 nM	5.5 nM	13000 nM	3100 nM	13000 nM	30000 nM	4400 nM	35000 nM	2900 nM
O=C1NCC2(CCCCC2)n2c1cc1cnc(N[C@H]3CC[C@H](NC4CCOCC4)CC3)nc12 [Compound 16, 2′-(((1r,4r)-4-((tetrahydro-2H-pyran-4-yl)amino)cyclohexyl)amino)-7′,8′-dihydro-6′H-spiro[cyclohexane-1,9′-pyrazino[1′,2′:1,5]pyrrolo[2,3-d]pyrimidin]-6′-one]	72 nM	240 nM	2.7 nM	190 nM	110 nM	170 nM	470 nM	91 nM	480 nM	13 nM
O=C1NCC2(CCCCC2)n2c1cc1cnc(N[C@H]3CC[C@H](Nc4ncc(F)cn4)CC3)nc12 [Compound 19, 2′-(((1,4-trans)-4-((5-fluoropyrimidin-2-yl)amino)cyclohexyl)-12-azaneyl)-7′,8′-dihydro-6′H-spiro[cyclohexane-1,9′-pyrazino[1′,2′:1,5]pyrrolo[2,3-d]pyrimidin]-6′-one]	75 nM	220 nM	2.1 nM	110 nM	71 nM	740 nM	120 nM	96 nM	120 nM	8.6 nM
O=C1NCC2(CCCCC2)n2c1cc1cnc(N[C@H]3CC[C@H](NCc4ccccc4F)CC3)nc12 [Compound 20, 2′-(((1,4-trans)-4-((2-fluorobenzyl)amino)cyclohexyl)amino)-7′,8′-dihydro-6′H-spiro[cyclohexane-1,9′-pyrazino[1′,2′:1,5]pyrrolo[2,3-d]pyrimidin]-6′-one]	78 nM	400 nM	4.7 nM	310 nM	180 nM	230 nM	370 nM	360 nM	370 nM	14 nM

More lines, now with the values ahead:

IC50 [1]	IC50 [2]	IC50 [3]	IC50 [4]	IC50 [5]	IC50 [6]	IC50 [7]	IC50 [8]	IC50 [9]	IC50 [10]	Structure (SMILES)
71 nM	290 nM	2.1 nM	220 nM	140 nM	110 nM	350 nM	310 nM	320 nM	14 nM	O=C1NCC2(CCCCC2)n2c1cc1cnc(N[C@H]3CC[C@H](NCc4cccnc4)CC3)nc12 [Compound 21, 2′-(((1,4-trans)-4-((pyridin-3-ylmethyl)amino)cyclohexyl)amino)-7′,8′-dihydro-6′H-spiro[cyclohexane-1,9′-pyrazino[1′,2′:1,5]pyrrolo[2,3-d]pyrimidin]-6′-one]
350 nM	510 nM	56 nM	190 nM	78 nM	3400 nM	170 nM	410 nM	230 nM	69 nM	CS(=O)(=O)N[C@H]1CC[C@H](Nc2ncc3cc4n(c3n2)C2(CCCCC2)CNC4=O)CC1 [Compound 22, N-((1,4-trans)-4-((6′-oxo-7′,8′-dihydro-6′H-spiro[cyclohexane-1,9′-pyrazino[1′,2′:1,5]pyrrolo[2,3-d]pyrimidin]-2′-yl)amino)cyclohexyl)methanesulfonamide]
940 nM	56000 nM	690 nM	35000 nM	28000 nM	61000 nM	47000 nM	39000 nM	55000 nM	170 nM	O=C1NCC2(CCCCC2)n2c1cc1cnc(N[C@H]3CCCNC3=O)nc12 [Compound 23, (S)-2′-((2-oxopiperidin-3-yl)amino)-7′,8′-dihydro-6′H-spiro[cyclohexane-1,9′-pyrazino[1′,2′:1,5]pyrrolo[2,3-d]pyrimidin]-6′-one]
1000 nM	290 nM	25 nM	240 nM	220 nM	470 nM	330 nM	560 nM	260 nM	250 nM	O=C1CC[C@H](Nc2ncc3cc4n(c3n2)C2(CCCCC2)CNC4=O)CN1 [Compound 24, (S)-2′-((6-oxopiperidin-3-yl)amino)-7′,8′-dihydro-6′H-spiro[cyclohexane-1,9′-pyrazino[1′,2′:1,5]pyrrolo[2,3-d]pyrimidin]-6′-one]
970 nM	26000 nM	560 nM	11000 nM	8000 nM	14000 nM	10000 nM	8900 nM	9600 nM	270 nM	O=C1NCC2(CCCCC2)n2c1cc1cnc(N[C@H]3Cc4ccccc4NC3=O)nc12 [Compound 27, (S)-2′-((2-oxo-1,2,3,4-tetrahydroquinolin-3-yl)amino)-7′,8′-dihydro-6′H-spiro[cyclohexane-1,9′-pyrazino[1′,2′:1,5]pyrrolo[2,3-d]pyrimidin]-6′-one]
